These results are taken from PMC10449631 (Nature Chemical Biology, 2023).

The term Ki denotes a dissociation constant, usually derived from enzyme kinetics or from competition with a known ligand. The low end stands for higher affinity, the high end for lower affinity. The amount remaining is the share of the starting amount still present when the sample was taken.

The target in series [1] is T1, PaAP_T (P. aeruginosa aminopeptidase, C-terminal truncated) (Pseudomonas aeruginosa, UniProt Q02PA2).
T1 construct: PaAP (WT, residues 27–536); His6 (TEV cleavable) (N, cleaved yes); made in house; host or cells: E. coli SHuffle T7
T1 sequence (Q02PA2 37-516, looked up, natural form): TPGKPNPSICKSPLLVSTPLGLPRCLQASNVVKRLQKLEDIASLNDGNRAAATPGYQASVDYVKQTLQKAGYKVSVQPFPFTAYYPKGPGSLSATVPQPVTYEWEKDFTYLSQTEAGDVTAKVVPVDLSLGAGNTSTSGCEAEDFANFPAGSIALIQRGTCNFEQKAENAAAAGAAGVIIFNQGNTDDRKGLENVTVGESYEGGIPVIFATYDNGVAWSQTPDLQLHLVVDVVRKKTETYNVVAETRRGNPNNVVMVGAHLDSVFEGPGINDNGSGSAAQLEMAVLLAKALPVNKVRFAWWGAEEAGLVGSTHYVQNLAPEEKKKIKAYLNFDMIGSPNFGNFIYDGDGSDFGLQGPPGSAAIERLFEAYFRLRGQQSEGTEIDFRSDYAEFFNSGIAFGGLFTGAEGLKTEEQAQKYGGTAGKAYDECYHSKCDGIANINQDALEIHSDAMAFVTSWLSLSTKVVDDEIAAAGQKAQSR
The series is described as follows: Inhibition of PaAP_T in the Leu-pNA aminopeptidase assay (KI, IC50). Format: biochemical. The procedure: Aminopeptidase activity was determined spectrophotometrically primarily using amino Leu-pNA. Other commercially available pNA substrates (isoleucine, methionine, alanine, valine, proline, arginine, lysine and phenylalanine) were also assayed. Leu-pNA was incubated with enzyme (100 nM) in assay buffer (50 mM Tris, pH 8.5, 200 mM NaCl) at 25 °C. A pNA release caused an absorbance increase at 405 nm, monitored using a BMG Labtech plate reader. […] Data were plotted in GraphPad Prism (version 9) and the Michalis Menten equation was used for fitting.
Inhibition assays were carried out with the following peptides: linear-ERWGHDFIK (PaAP C-terminal residues), cyclic-ERWGHDFIK, N-acetylated and C-amidated ERWGHDFIK. IC50 values were determined by varying peptide concentration at a fixed substrate concentration (fixed at KM, (S) = 2 mM, PaAP concentration was 100 nM). […] KI values were determined by fitting the data to equation (1) (Morrison’s equation):1 v=1−Et+I+KI−Et+I+KI^2−4EtIKI/2Et where v is the velocity, Et is the total enzyme concentration, I is the concentration of inhibitor and KI is the equilibrium dissociation constant for the inhibitor. IC50 values increased when measured at increasing S, consistent with competitive inhibition.

Series [2] is described as follows: in vitro. Format: in vitro ADME, Pseudomonas aeruginosa. The conditions noted are these: cells or culture medium; after 48 h growth; read-out: peptide remaining in solution. As to the method:
Supplementary Figure 19. Stability of cyclic-ERWGHDFIK
The stability of cyclic-ERWGHDFIK was tested by incubating in LB media +/- inoculation with PA14 Pseudomonas aeruginosa. Samples were taken at set timepoints over a 48 hour time period, quenched and analysed by LC-MS. % of cyclic-ERWGHDFIK remaining was calculated by comparing integrated peak areas to the 0 time point. n=1 […]
(1 picture or pasted object on this page, not shown here)

Series [3] deals with PaAP_T. The series is described as follows: reaction buffer (50 mM Tris, pH 8.5, 100 mM NaCl), time-course assay. The conditions noted are these: Pseudomonas aeruginosa (recombinant enzyme), room temperature, up to 1220 min.
Series [4] deals with PaAP_T. In words: PaAP_T in reaction buffer (50 mM Tris, pH 8.5, 100 mM NaCl), time course. The conditions noted are these: P. aeruginosa, room temperature, up to 1220 minutes.
The test system of series [5] is PaAP. On the set-up: method as in PMID 30894675. The conditions noted are these: impacted the activity of PaAP in vivo; cited from earlier work.

Positions of bridges follow the written chain, without caps; N, C: chain ends. Residues, ends and D or L forms follow the SMILES beside them. Some results are limits rather than exact numbers.

In series [1], `CC[C@H](C)[C@@H]1NC(=O)[C@H](Cc2ccccc2)NC(=O)[C@H](CC(=O)O)NC(=O)[C@H](Cc2c[nH]cn2)NC(=O)CNC(=O)[C@H](Cc2c[nH]c3ccccc23)NC(=O)[C@H](CCCNC(=N)N)NC(=O)[C@@H](N)CCC(=O)NCCCC[C@@H](C(=O)O)NC1=O` [cyclic-ERWGHDFIK] (H-ERWGHDFIK-OH; lactam 1-9) returned an inhibitory constant (Ki) of 22.8 nM. The share remaining at 48 h in series [2] is above 60%.
Take HCATIPAFDG: the fragment found entry was “products from P-5, major” in series [3] and “products from P-5, major” in series [4].
`O=C(O)CCNC(=O)c1ccc(/N=N/c2ccc(O)c(C(=O)O)c2)cc1` [Balsalazide]: the “effect on biofilm” value in series [5] was “anti-biofilm phenotype”.
